Source: ChEMBL document CHEMBL5584237, “Design, synthesis, biological evaluation, and in silico studies of novel pyridopyridine derivatives as anticancer candidates targeting FMS kinase” (Eur J Med Chem, 2024)
Activity calls are given as the source filed them. The calls are words filed in the database; no cut-off is given here.

Tests used:
HCT-116 = experiment: Antiproliferative activity against human HCT-116 cells assessed as cell growth inhibition; format: functional
MDA-MB-435 = experiment: Antiproliferative activity against human MDA-MB-435 cells assessed as cell growth inhibition; format: functional
[1] = Cytotoxicity against human HS27 cells assessed as reduction in cell growth measured after 48 hrs by MTT assay; format: toxicity, cell-based
[2] = Selectivity index, ratio of IC50 for human WI-38 cells to IC50 for human MDA-MB-468 cells; format: toxicity; conditions: WI-38 cells and MDA-MB-468 cells, read-out: Ratio IC50
[3] = Selectivity index, ratio of IC50 for human HS27 cells to IC50 for human MOLT-4 cells
[4] = Selectivity index, ratio of IC50 for human HS27 cells to IC50 for human 786-0 cells
[5] = Selectivity index, ratio of IC50 for human HS27 cells to IC50 for human RXF 393 cells
Hep 3B2 = experiment: Cell cycle arrest in human Hep3B cells assessed as upregulation of cyclin B1 expression at 3.38 uM measured after 48 hrs by Western blot analysis; format: functional, cell-based

GI50 (HCT-116): 640 nM
GI50 (MDA-MB-435): 650 nM
Structure (SMILES): CCN1CCN(c2ccc(NC(=O)Nc3ccc(-c4cc(C(=O)NC(C)C)c5ncccc5n4)cc3)cc2C(F)(F)F)CC1
TGI (HCT-116): 1300 nM
TGI (MDA-MB-435): 1310 nM
IC50 at 48 h [1]: 8.4 µM
selectivity ratio [2]: 10.1
Ratio IC50 [3]: 8
Ratio IC50 [4]: 5.45
Ratio IC50 [5]: 5.45
Activity (Hep 3B2): Active
